Source: patent publication US8507464B2, “Phosphoramidate alkylator prodrugs” (Threshold Pharmaceuticals, Inc., priority 2005, dated 2013)
Read-outs that look alike come from different tables or passages of the source.

Key:
[1] = Plasma stability (Table 2B); conditions: 30 min
[2] = tested on: MES-SA/Dx5 cells; experiment: Antiproliferation assay (Alamar Blue), anoxia vs air; conditions: Homo sapiens, MES-SA/Dx5, 2 h
[3] = tested on: NCI-H460 cells; experiment: as above; conditions: Homo sapiens, NCI-H460, 2 h
[4] = tested on: HT29; experiment: Anti-proliferation assay, hypoxia vs normoxia (Table 1B); conditions: for IC50: Homo sapiens
[5] = tested on: mouse (MLM) liver microsomal proteins; type: in vitro ADME; conditions: for Metabolic stability (MLM) (% at 30 min): Table 2B
[6] = tested on: DX-5; experiment: Anti-proliferation assay, hypoxia vs normoxia (Table 1B)
[7] = tested on: H460 cell line; experiment: Anti-proliferation assay, hypoxia vs normoxia (Table 1A); conditions: for IC50: Homo sapiens; for HCR P: ratio of IC50 in normoxia and hypoxia
[8] = MTD (Table 2B); conditions: in vivo
[9] = tested on: HT29 cells; experiment: Antiproliferation assay (Alamar Blue), anoxia vs air; conditions: Homo sapiens, HT-29, 2 h
[10] = in vivo
[11] = in vivo; conditions: CD-1, mouse, ip, 50 mg/kg
[12] = tested on: NCI H460 xenograft; type: in vivo, mouse; conditions: day 27, vs vehicle
Source text: Comparisons were made on day 27 because that was the last day of measurements for the vehicle group and those animals were sacrificed.

[13] = tested on: NCI-H460 cells; experiment: Antiproliferation assay - oxygen dependence; type: cell-based, human; conditions: Homo sapiens
Source text: . […] The calculated IC50 values (μM) are tabulated in Table Y1 (H460 cells) or Table Y2 (HT29 cells) below.

[14] = tested on: MES-SA cells; experiment: Antiproliferation assay (Alamar Blue), anoxia vs air; conditions: Homo sapiens, 2 h
[15] = tested on: H460 lung carcinoma spheroids; experiment: Spheroid model, clonogenic survival; conditions: Homo sapiens, NCI-H460, 2 h, read-out: IC90 H460 Spheroid 10% O2
[16] = tested on: H460 cells exposed as monolayers; experiment: Clonogenic survival of monolayer cells (Example 35); conditions: Homo sapiens, NCI-H460, 2 h
[17] = logP (partitioning between octanol and water); type: physicochemical; conditions: logP
Source text: As used herein “LogP” means a measure of lipophilicity of a substance determined based on the partitioning of the substance betwen octanol and water.

[18] = tested on: NCI-H460 cells; experiment: Clonogenic assay - oxygen dependence; conditions: Homo sapiens
[19] = tested on: HT29 xenograft; experiment: HT-29 human colon carcinoma xenograft mouse model (Example 50); type: in vivo
Experimental: Female CB17/SCID mice (purchased from Charles River, Cambridge, Mass.), 7-8 weeks of age, were allowed to acclimatize for at least three days, and handled under pathogen-free conditions. Human colon carcinoma cell line HT29 was obtained from the American Type Culture Collection. The cell lines were cultured and harvested as described in Example 47 above, and inoculated at 3×10^6 cells/animal in the peritoneal subcutaneous space. […]; in saline) on the days the combination therapy was scheduled; 5FU alone (in saline), or CDDP alone.
In control groups, tumors were implanted in two locations as part of a separate study of effect of location on control group tumor growth. […] The body weight and tumor volume were measured as described in Example 47. Tumor growth inhibition measured on day 25 when vehicle tumors had reached the maximal size and animals in that group were sacrificed is tabulated below.

[20] = type: physicochemical; conditions: glassy carbon, Ag/AgCl reference
[21] = tested on: NCI H460 xenograft; experiment: NCI H460 non small cell lung carcinoma xenograft mouse model (Example 48); type: in vivo; conditions: Group 6: Taxol (q2d × 3)/week × 2 weeks; day 29; vs vehicle
Experimental: Female CB17/SCID mice (purchased from Charles River, Cambridge, Mass.), 7-8 weeks of age, were allowed to acclimatize for at least three days, and handled under pathogen-free conditions. Human […] cell line NCI H460 was obtained from the American Type Culture Collection. The cell lines were cultured and harvested according to the procedure described in Example 47 and inoculated at 1×10^6 cells/animal in the peritoneal subcutaneous space. When the tumors grew to an average volume of 100 mm^3 (day 8), […], as tabulated in the table below: Compound 25 (2.5 mg/ml in 10% PEG; administration route—i.p.) and Taxol (1 mg/ml in 5% EtOH, 5% Cremophor and 90% saline; administration—i.v. 2 h after administration of Compound 25). The body weight and tumor volumes were measured as described in Example 47 above.
Results are presented in Table X2 based on tumor volume measurement on day 29 when vehicle treated mice had reached a volume of 946 mm^3. Groups of 5 mice receiving saline or no treatment were added in order to indicate any vehicle effects but are not used for comparisons in this analysis.

[22] = tested on: rat (RLM) liver microsomal proteins; experiment: Metabolic stability in liver microsomal protein; type: in vitro ADME; conditions: 5 μM
[23] = tested on: human (HLM) liver microsomal proteins; experiment: Metabolic stability in liver microsomal protein; type: in vitro ADME; conditions: Table 2A, second study, 5 μM
[24] = read-out: IC50 MES-SA/Dx5 Anoxia
[25] = read-out: IC50 H460 Air, air, 2 h exposure
[26] = read-out: IC50 H460 Anoxia, anoxia, 2 h exposure
[27] = HT-29, read-out: HT29 P H (proliferation IC50, hypoxia)
[28] = HT-29, read-out: HT29 P N (proliferation IC50, normoxic)
[29] = read-out: DX-5 P H (proliferation IC50, hypoxia)
[30] = read-out: DX-5 P N (proliferation IC50, normoxic)
[31] = NCI-H460, read-out: Hypoxia P (proliferation IC50)
[32] = NCI-H460, read-out: Normoxia P (proliferation IC50)

## Cn1c(COP(=O)(N(CCCl)CCCl)N(CCCl)CCCl)cnc1[N+](=O)[O-] [Compound 6]
[1]
  Plasma stability (% at 30 min): 60%
[2]; read-out: IC50 MES-SA/Dx5 Air
  IC50: > 100000 nM
[2]; [24]
  IC50: 5000 nM
[3]; [25]
  IC50: > 100000 nM
[3]; [26]
  IC50: 700 nM
[4]
  HT29 HCR P: >2
[4]; [27]
  IC50: 55000 nM
[4]; [28]
  IC50: > 100000 nM
[5]
  Metabolic stability (MLM) (% at 30 min): 0%
[6]
  DX-5 HCR: >20
[6]; [29]
  IC50: 5000 nM
[6]; [30]
  IC50: > 100000 nM
[7]; [31]
  IC50: 700 nM
[7]; [32]
  IC50: > 100000 nM
[7]
  HCR P: >140
[8]
  MTD: 250 mg/kg
[9]; read-out: IC50 HT29 Air
  IC50: > 100000 nM
[9]; read-out: IC50 HT29 Anoxia
  IC50: 22000 nM

## Cn1c(COP(=O)(N(CCCl)C2CC2)N(CCCl)C2CC2)cnc1[N+](=O)[O-] [Compound 7]
[1]
  Plasma stability (% at 30 min): 85%
[2]; read-out: IC50 MES-SA/Dx5 Air
  IC50: 83000 nM
[2]; [24]
  IC50: 590 nM
[3]; [25]
  IC50: 25000 nM
[3]; [26]
  IC50: 140 nM
[4]
  HT29 HCR P: >5
[4]; [27]
  IC50: 7000 nM
[4]; HT-29, read-out: HT29 P H, value in parentheses
  IC50: 100000 nM
[4]; [28]
  IC50: > 100000 nM
[4]; parentheses not explained
  HT29 HCR P, value in parentheses: (1)
[5]
  Metabolic stability (MLM) (% at 30 min): 0%
[6]
  DX-5 HCR: 140
[6]; [29]
  IC50: 600 nM
[6]; [30]
  IC50: 83000 nM
[7]; [31]
  IC50: 140 nM
[7]; [32]
  IC50: 25000 nM
[7]
  HCR P: 180
[9]; read-out: IC50 HT29 Air
  IC50: > 100000 nM
[9]; read-out: IC50 HT29 Anoxia
  IC50: 7000 nM
[10]
  MTD: 250 mg/kg

## O=[N+]([O-])c1ccc(COP(=O)(NCCBr)NCCBr)o1 [Compound 24]
[11]
  AUC: 64000 ng·h/mL
  Cmax: 7600 ng/mL
  Tmax: 5 min
  half-life: 4.1 min
[2]; read-out: IC50 MES-SA/Dx5 Air
  IC50: 800 nM
[2]; [24]
  IC50: 100 nM
[3]; [25]
  IC50: 4000 nM
[3]; [26]
  IC50: 10 nM
[12]; Group 3: Compound 24 3 mg/kg (q1d × 5 d)/week × 3 week
  % Inhibition vs Group 1: 39.9%
[13]; NCI-H460, read-out: IC50 in H460 cells, 0.6% O2
  IC50: 850 nM
[13]; NCI-H460, read-out: IC50 in H460 cells, Air
  IC50: > 1000 nM
[13]; NCI-H460, read-out: IC50 in H460 cells, N2
  IC50: 7 nM
[14]; read-out: IC50 MES-SA Air
  IC50: 2000 nM
[14]; read-out: IC50 MES-SA Anoxia
  IC50: 100 nM
[15]
  IC90: 3000 nM
[7]; [31]
  IC50: 10 nM
[7]; NCI-H460, read-out: IC50 in cells under hypoxia
  IC50: 50 nM
[7]; [32]
  IC50: 4000 nM
[7]; anti-proliferation cytotoxicity assay
  fold more toxic in hypoxic cells than in normoxic cells: 400 fold
[7]
  HCR P: 400
[16]; read-out: IC90 H460 Monolayer 0.6% O2
  IC90: 250 nM
[16]; read-out: IC90 H460 Monolayer Air
  IC90: 4000 nM
[16]; read-out: IC90 H460 Monolayer N2
  IC90: 70 nM
[17]
  logP: < 0
[18]; NCI-H460, read-out: IC90 H460 0.6% O2
  IC90: 250 nM
[18]; NCI-H460, read-out: IC90 H460 Air
  IC90: 14000 nM
[18]; NCI-H460, read-out: IC90 H460 N2
  IC90: 70 nM
[19]
  tumor growth inhibition, monotherapy: more than 40%
[19]; during treatment, recovered after end of treatment
  body weight: minor decreases in weights
[20]; scan rate 100 mV/sec
  Reduction Potentials, 100 mV/sec: −568 mV
[20]; scan rate 10,000 mV/sec
  Reduction Potentials, 10,000 mV/sec: −636 mV

## CC(=O)O[C@H]1C(=O)[C@@]2(C)[C@H]([C@H](OC(=O)c3ccccc3)[C@]3(O)C[C@H](OC(=O)[C@H](O)[C@@H](NC(=O)c4ccccc4)c4ccccc4)C(C)=C1C3(C)C)[C@]1(OC(C)=O)CO[C@@H]1C[C@@H]2O [Taxol, paclitaxel, reference compound]
[12]; Group 2: Taxol 10 mg/kg (q2d × 3)/week × 2 week
  % Inhibition vs Group 1: 36.7%
[21]
  % Inhibition vs Group 2: 46%

## C[C@]12CC[C@H]3[C@@H](CCC4=CC(=O)CC[C@@]43C)[C@@H]1CC[C@@H]2O [Testosterone, reference compound]
[22]; Table 1, first study
  Metabolic stability (% at 30 min) RLM: 0%
[22]; Table 2A, second study
  Metabolic stability (% at 30 min) RLM: 33%
[23]
  Metabolic stability (% at 30 min) HLM: 65%
[5]; Table 1, first study, 5 μM
  Metabolic stability (% at 30 min) MLM: 6%
